From US11058680B2, “Combinations of opioid/TLR4 antagonists and acetaminophen for use in the treatment of emotional pain and insomnia” (Allodynic Threapeutics, LLC, priority 2016, dated 2021)

Test system: emotional pain
Test: Migraine open-label pilot study: emotional pain on 4-point scale (emotional pain-free, emotional pain intensity)
Assay type: in vivo, human
Settings: for Change in emotional pain-free / Change in emotional pain-intensity: baseline to 24 h; for Emotional pain-intensity at 24 hours post-dosing / Emotional pain-intensity at baseline: sum of severity of all patients
Experimental: Sixteen unique patients were enrolled in an open phase pilot study for the acute treatment of migraine attacks, insomnia, and emotional pain. Of the sixteen patients, eleven were evaluated for one migraine attack, one for two attacks, two for four attacks, one for six attacks, and one for fourteen attacks. A total of forty-one […] treatments were evaluated. Patients received a single dose of one of the following treatment options:
The majority of the patients remained in the clinic for observation for 2 hours after dosing. They completed headache diary assessments immediately before and after dosing at time points: 7, 15, and 30 minutes; and 1, 1.5, 2, 3, 6, 12, 24, and 48 hours. Headache pain was assessed on a 4-point scale (0=none; 1=mild; 2=moderate; 3=severe). The assessment of photophobia, phonophobia, nausea, and neck/shoulder pain was assessed as present or absent. The assessment of emotional pain was recorded on a 4-point scale (0=none, 1=mild, 2=moderate, 3=severe). The assessment of difficulty sleeping or falling asleep (insomnia) was assessed on a 4-point scale (0=none, 1=mild, 2=moderate, 3=severe) at baseline, for the night before treatment and for the following nights at 24, and 48 hours. Patients recorded side effects severity at each time point. Patients recorded the time of the first rescue medication dose and all additional headache medications used within 48 hours. Patients were required to stay awake to record their assessments in the first 2 hours, sleeping was permitted thereafter. While asleep, assessments were completed according to patients' best estimation. For data analysis, it was assumed that a migraine attack is a unique patient. Patients were asked to specify (yes or no answer) to whether they experienced emotional pain symptoms such as: hurt feelings, sadness, fear, or anger. Patients who replied positively to having emotional pain were asked to specify the cause into one of the following options: relationship, work/school, money/debt, health, or loss/grief.

[1] = 24 hours after dosing, naltrexone/acetaminophen 2.25 mg/325 mg (N=21), naltrexone 2.25 mg (N=9)
[2] = NTX/APAP 2.25 mg/325 mg, NTX 2.25 mg
[3] = NTX/APAP 3.25 mg/325 mg, NTX 3.25 mg

O=C1CC[C@@]2(O)[C@H]3Cc4ccc(O)c5c4[C@@]2(CCN3CC2CC2)[C@H]1O5 [naltrexone]
emotional pain intensity decreased by (24-hour change from baseline, naltrexone 2.25 mg (n=9)): 55% | Emotional pain-free (7 min, NTX/APAP 2.25 mg/325 mg, NTX 2.25 mg): 1 (33) n (%) | Emotional pain-free (7 min, NTX/APAP 3.25 mg/325 mg, NTX 3.25 mg): 1 n (%) | Emotional pain-free (7 min, NTX/APAP 5 mg/325 mg, NTX 5 mg): 0 n (%) | Emotional pain-free (7 min, all doses combined): 2 (33) n (%) | Emotional pain-free (15 min, NTX/APAP 2.25 mg/325 mg, NTX 2.25 mg): 7 (77) n (%) | Emotional pain-free (15 min, NTX/APAP 3.25 mg/325 mg, NTX 3.25 mg): 2 n (%) | Emotional pain-free (15 min, NTX/APAP 5 mg/325 mg, NTX 5 mg): 0 n (%) | Emotional pain-free (15 min, NTX/APAP […]325 mg, NTX 1.5 mg): 2 n (%) | Emotional pain-free (15 min, all doses combined): 11 (69) n (%) | Emotional pain-free (30 min, NTX/APAP 2.25 mg/325 mg, NTX 2.25 mg): 8 (89) n (%) | Emotional pain-free (30 min, NTX/APAP 3.25 mg/325 mg, NTX 3.25 mg): 2 (66) n (%) | Emotional pain-free (30 min, NTX/APAP 5 mg/325 mg, NTX 5 mg): 1 (100) n (%) | Emotional pain-free (30 min, NTX/APAP […]325 mg, NTX 1.5 mg): 2 (66) n (%) | Emotional pain-free (30 min, all doses combined): 13 (87) n (%) | Emotional pain-free (1 h, NTX/APAP 2.25 mg/325 mg, NTX 2.25 mg): 9 (100) n (%) | Emotional pain-free (1 h, NTX/APAP 3.25 mg/325 mg, NTX 3.25 mg): 2 (66) n (%) | Emotional pain-free (1 h, NTX/APAP 5 mg/325 mg, NTX 5 mg): 1 n (%) | Emotional pain-free (1 h, NTX/APAP […]325 mg, NTX 1.5 mg): 2 (66) n (%) | Emotional pain-free (1 h, all doses combined): 14 (88) n (%) | Emotional pain-free (90 min, NTX/APAP 2.25 mg/325 mg, NTX 2.25 mg): 9 (100) n (%) | Emotional pain-free (90 min, NTX/APAP 3.25 mg/325 mg, NTX 3.25 mg): 3 (100) n (%) | Emotional pain-free (90 min, NTX/APAP 5 mg/325 mg, NTX 5 mg): 1 (100) n (%) | Emotional pain-free (90 min, NTX/APAP […]325 mg, NTX 1.5 mg): 3 (100) n (%) | Emotional pain-free (90 min, all doses combined): 16 (100) n (%) | Emotional pain-free (2 h, NTX/APAP 2.25 mg/325 mg, NTX 2.25 mg): 9 (100) n (%) | Emotional pain-free (2 h, NTX/APAP 3.25 mg/325 mg, NTX 3.25 mg): 3 (100) n (%) | Emotional pain-free (2 h, NTX/APAP 5 mg/325 mg, NTX 5 mg): 1 n (%) | Emotional pain-free (2 h, NTX/APAP […]325 mg, NTX 1.5 mg): 3 (100) n (%) | Emotional pain-free (2 h, combined doses): 16 (100) | Emotional pain-free (3 h, NTX/APAP 2.25 mg/325 mg, NTX 2.25 mg): 9 (100) n (%) | Emotional pain-free (3 h, NTX/APAP 3.25 mg/325 mg, NTX 3.25 mg): 3 (100) n (%) | Emotional pain-free (3 h, NTX/APAP 5 mg/325 mg, NTX 5 mg): 1 (100) n (%) | Emotional pain-free (3 h, NTX/APAP […]325 mg, NTX 1.5 mg): 3 (100) n (%) | Emotional pain-free (3 h, combined doses): 16 (100) n (%) | Emotional pain-free (4 h, NTX/APAP 2.25 mg/325 mg, NTX 2.25 mg): 9 (100) n (%) | Emotional pain-free (4 h, NTX/APAP 3.25 mg/325 mg, NTX 3.25 mg): 3 (100) n (%) | Emotional pain-free (4 h, NTX/APAP 5 mg/325 mg, NTX 5 mg): 1 (100) n (%) | Emotional pain-free (4 h, NTX/APAP […]325 mg, NTX 1.5 mg): 3 (100) n (%) | Emotional pain-free (4 h, combined doses): 15 (94) n (%) | Emotional pain-free (6 h, NTX/APAP 2.25 mg/325 mg, NTX 2.25 mg): 9 (100) n (%) | Emotional pain-free (6 h, NTX/APAP 3.25 mg/325 mg, NTX 3.25 mg): 3 (100) n (%) | Emotional pain-free (6 h, NTX/APAP 5 mg/325 mg, NTX 5 mg): 1 (100) n (%) | Emotional pain-free (6 h, NTX/APAP […]325 mg, NTX 1.5 mg): 3 (100) n (%) | Emotional pain-free (6 h, combined doses): 15 (94) n (%) | Emotional pain-free (12 h, NTX/APAP 2.25 mg/325 mg, NTX 2.25 mg): 9 (100) n (%) | Emotional pain-free (12 h, NTX/APAP 3.25 mg/325 mg, NTX 3.25 mg): 3 (100) n (%) | Emotional pain-free (12 h, NTX/APAP 5 mg/325 mg, NTX 5 mg): 1 (100) n (%) | Emotional pain-free (12 h, NTX/APAP […]325 mg, NTX 1.5 mg): 3 (100) n (%) | Emotional pain-free (12 h, combined doses): 15 (94) n (%) | Emotional pain-free (24 h, NTX/APAP 2.25 mg/325 mg, NTX 2.25 mg): 9 (100) n (%) | Emotional pain-free (24 h, NTX/APAP 3.25 mg/325 mg, NTX 3.25 mg): 3 (100) n (%) | Emotional pain-free (24 h, NTX/APAP 5 mg/325 mg, NTX 5 mg): 1 (100) n (%) | Emotional pain-free (24 h, NTX/APAP […]325 mg, NTX 1.5 mg): 3 (100) n (%) | Emotional pain-free (24 h, combined doses): 15 (94) | Emotional Pain-free at 24 hours after dosing (24 hours after dosing, NTX/APAP 2.25 mg/325 mg, NTX 2.25 mg): 9 (100) n (%) | Emotional Pain-free at 24 hours after dosing (24 hours after dosing, NTX/APAP 3.25 mg/325 mg, NTX 3.25 mg): 3 n (%) | Emotional Pain-free at 24 hours after dosing (24 hours after dosing, NTX/APAP 5 mg/325 mg, NTX 5 mg): 1 n (%) | Emotional Pain-free at 24 hours after dosing (24 hours after dosing, NTX/APAP […]325 mg, NTX 1.5 mg): 3 n (%) | emotional pain intensity change from baseline [1]: −55% | emotional pain-free change from baseline [1]: 33% | Emotional pain-free (48 h, NTX/APAP 2.25 mg/325 mg, NTX 2.25 mg): 9 (100) | Emotional pain-free (48 h, NTX/APAP 3.25 mg/325 mg, NTX 3.25 mg): 3 (100) | Emotional pain-free (48 h, NTX/APAP 5 mg/325 mg, NTX 5 mg): 1 (100) | Emotional pain-free (48 h, NTX/APAP […]325 mg, NTX 1.5 mg): 3 (100) | Emotional pain-free (48 h, combined doses): 13 (100) n (%) | Change in emotional pain-free [2]: +3 (+33) n (%) | Change in emotional pain-intensity [2]: −5 (−55) n (%) | Change in emotional pain-intensity [3]: −1 (−100) n (%) | Change in emotional pain-intensity (NTX/APAP 5 mg/325 mg, NTX 5 mg): −2 (−100) n (%) | Change in emotional pain-free (NTX/APAP […]325 mg, NTX 1.5 mg): +1 n (%) | Emotional pain-free at baseline [2]: 6 (66) n (%) | Emotional pain-free at baseline [3]: 2 n (%) | Emotional pain-free at baseline (NTX/APAP 5 mg/325 mg, NTX 5 mg): 0 n (%) | Emotional pain-free at baseline (NTX/APAP […]325 mg, NTX 1.5 mg): 2 n (%) | Emotional pain-intensity at 24 hours post-dosing [2]: 0 n (%) | Emotional pain-intensity at 24 hours post-dosing [3]: 0 n (%) | Emotional pain-intensity at 24 hours post-dosing (NTX/APAP 5 mg/325 mg, NTX 5 mg): 0 n (%) | Emotional pain-intensity at 24 hours post-dosing (NTX/APAP […]325 mg, NTX 1.5 mg): 0 n (%) | Emotional pain-intensity at baseline [2]: 5 (55) n (%) | Emotional pain-intensity at baseline [3]: 1 n (%) | Emotional pain-intensity at baseline (NTX/APAP 5 mg/325 mg, NTX 5 mg): 2 n (%) | Emotional pain-intensity at baseline (NTX/APAP […]325 mg, NTX 1.5 mg): 2 n (%)
